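Cultured in 96-well plates, cells were exposed to test compound for 48 hours across five concentrations. GI50: concentration for 50% inhibition of growth.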 Calls of active or inactive are those of the source. No stated cut-off is given here; in the data, active = GI50 up to about 1.1 µM and inactive = higher.
How the values were obtained:
Test in all cases: NCI anticancer screen, dose series, 48 h
[1] = tested on: NCI-H460
[2] = tested on: LOX IMVI
[3] = tested on: UACC-257
[4] = tested on: OVCAR-8
[5] = tested on: CCRF-CEM
[6] = tested on: SF-539
[7] = tested on: IGROV-1
[8] = tested on: DLD-1
[9] = tested on: M14
[10] = tested on: KM12
[11] = tested on: NCI-H23
[12] = tested on: HCC 2998
[13] = tested on: SK-MEL-28
[14] = tested on: UACC-62
[15] = tested on: UO-31
[16] = tested on: SK-OV-3
[17] = tested on: HL-60
[18] = tested on: CAKI-1

Measured: GI50

CN1N=CSC12C(=O)N(c1ccccc1)C(=O)N2c1ccccc1 (stereo unspecified)
inactive: [1] > 100 µM | [2] > 100 µM | [3] > 100 µM | [4] > 100 µM | [5] > 100 µM | [6] > 100 µM | [7] > 100 µM | [8] > 100 µM | [9] > 100 µM | [10] > 100 µM | [11] > 100 µM | [12] > 100 µM | [13] > 100 µM | [14] > 100 µM | [15] > 100 µM | [16] > 100 µM | [17] > 100 µM | [18] > 100 µM

C=C1CC2(CCS(=O)(=O)c3ccccc32)OC1=O (stereo unspecified)
inactive: [1] 18.5 µM | [2] 17.3 µM | [3] 14.5 µM | [5] 2.24 µM | [6] 5.6 µM | [7] 16.6 µM | [8] 12.5 µM | [9] 6.62 µM | [10] 16 µM | [11] 12 µM | [12] 21.9 µM | [13] 13.3 µM | [14] 15.9 µM | [15] 13.2 µM | [16] 17.6 µM | [17] 2.96 µM | [18] 1.48 µM

CCC1CN2CCc3cc(OC)c(OC)cc3C2CC1CC1c2cc(OC)c(OC)cc2CCN1C(=O)C1CCCN1 (stereo unspecified)
inactive: [1] 25.9 µM | [2] 24.9 µM | [3] 17.2 µM | [4] 38.8 µM | [5] 26.1 µM | [6] 20.3 µM | [7] 28.4 µM | [8] 30.1 µM | [9] 14.5 µM | [10] 35.2 µM | [11] 32.5 µM | [12] 23.9 µM | [13] 18.8 µM | [15] 21.5 µM | [16] 29.4 µM | [17] 19.3 µM | [18] 6.44 µM

CCN(CC)CCCN(c1cc(OC)cc2nccnc12)S(=O)(=O)c1ccc(C)cc1
inactive: [1] > 100 µM | [2] > 100 µM | [3] > 100 µM | [4] > 100 µM | [5] 99.1 µM | [6] > 100 µM | [7] > 100 µM | [8] > 100 µM | [9] > 100 µM | [10] > 100 µM | [11] > 100 µM | [12] > 100 µM | [13] > 100 µM | [14] > 100 µM | [15] > 100 µM | [16] > 100 µM | [17] > 100 µM | [18] > 100 µM

O=c1/c(=C/c2ccccc2[N+](=O)[O-])sc2nnc(-c3ccco3)n12
inactive: [1] 25.2 µM | [2] 16.9 µM | [3] 33.9 µM | [4] 17 µM | [5] 23.1 µM | [6] 18.7 µM | [7] 25.1 µM | [8] 29.2 µM | [9] 18 µM | [10] 17.6 µM | [11] 22.2 µM | [12] 22.4 µM | [13] 21.8 µM | [14] 25.8 µM | [15] 30.5 µM | [16] 47.4 µM | [17] 24.8 µM | [18] 39.7 µM

COC(=O)[C@@]12C3=NO[C@]1(C(=O)OC)C(O[Si](C)(C)C(C)(C)C)[C@@H](OC(C)=O)[C@@H](OC(C)=O)[C@@H]2[C@@H](OCc1ccccc1)CC3 (stereo partly specified)
inactive: [1] 3.59 µM | [2] 8.81 µM | [3] 17.4 µM | [4] > 61.1 µM | [5] 5.45 µM | [6] > 100 µM | [7] > 29 µM | [8] > 30.5 µM | [9] > 100 µM | [10] > 100 µM | [11] 4.9 µM | [12] > 100 µM | [13] > 23.8 µM | [14] > 43.6 µM | [15] > 19.9 µM | [16] > 100 µM | [17] 3.86 µM | [18] 3.8 µM
